Literature values as cited in patent publication US20180071205A1, “Stable Vitamin C System” (priority 2014, published 2018).

Columns and labels:
[1] = aqueous solutions; accelerated by alkalines, iron and copper; sodium salt at pH >6
[2] = normal water-based preparation

With `O=C1O[C@H]([C@@H](O)CO)C(O)=C1O` [L-ascorbic acid] as the compound, how does the “stability to oxidation by air” value [1] read?
Its value is “rapidly oxidized by air”.

And the pH [2]?
Its pH is “around 2”.
